Assay results reported in ChEMBL document CHEMBL1147928, “Engineering small molecule specificity in nearly identical cellular environments” (Bioorg Med Chem Lett, 2007).
pIC50: −log10 of the molar value.

Tests used:
MEF = experiment: Cytotoxicity against FKBP deficient MEF cells by MTT assay; assay type: cell-based; conditions: Mus musculus
[1] = Cytotoxicity against mouse wild type fibroblast cells by MTT assay; assay type: cell-based

## CN(Cc1cnc2nc(N)nc(N)c2n1)c1ccc(C(=O)NC(CCC(=O)O)C(=O)O)cc1 (single isomer, unassigned) [METHOTREXATE]
MEF
  pIC50: 6.92
[1]
  pIC50: 6.74
